Results: PubChem BioAssay AID252 (DTP/NCI, 2004)
Values joined by “and” are separate entries in the source; they are usually repeats but may differ in a detail not shown here. Equal values may be shown once. Inconclusive results and toxic doses are left out.

Tested on: BDF1 mice, intracerebral L1210 leukemia, survival T/C
Assay: NCI In Vivo Anticancer Drug Screen. Data for tumor model L1210 Leukemia (intracerebral) in B6D2F1 (BDF1) mice
Conditions: higher = longer survival
Method: The antitumor activity of compounds was measured in mice bearing transplantable tumors. Survival or tumor size were measured and the results are expressed as the measurement made in the treated group (T) divided by the measurement made in the vehicle treated control group (C). The tumor model used in this assay is L1210 Leukemia (intracerebral) in B6D2F1 (BDF1) mice

`CCCCCCCCSc1ncnc2c1ncn2CCCC` was tested, and the T/C (endpoint: mean survival time, dose: 125.0 mg/kg/injection, schedule: Q01DX001 (ip), vehicle: saline) was 106 % of control, the T/C (endpoint: mean survival time, dose: 250.0 mg/kg/injection, schedule: Q01DX001 (ip), vehicle: saline) was 112 % of control and the T/C (endpoint: mean survival time, dose: 500.0 mg/kg/injection, schedule: Q01DX001 (ip), vehicle: saline) was 106 % of control. The T/C (endpoint: mean survival time, dose: 1000.0 mg/kg/injection, schedule: Q01DX001 (ip), vehicle: saline) was 101 % of control.

With `CN1CCN(CCCN2c3ccccc3Sc3ccc(Cl)cc32)CC1` the T/C (endpoint: mean survival time, dose: 16.6 mg/kg/injection, schedule: Q01DX009 (ip), vehicle: saline) was 108 % of control and the T/C (endpoint: mean survival time, dose: 25.0 mg/kg/injection, schedule: Q01DX009 (ip), vehicle: saline) was 103 % of control.

`CC1CC(NC(=O)N(CCCl)N=O)CC(C)(C)C1` (configuration not stated) was tested, and the T/C (endpoint: mean survival time, dose: 375.0 mg/kg/injection, schedule: Q01DX001 (ip), vehicle: other) was 103 % of control, the T/C (endpoint: mean survival time, dose: 500.0 mg/kg/injection, schedule: Q01DX001 (ip), vehicle: other) was 124 % of control and the T/C (endpoint: mean survival time, dose: 750.0 mg/kg/injection, schedule: Q01DX001 (ip), vehicle: other) was 116 % of control.

With `CS(=O)(=O)Nc1ccc(Nc2c3ccccc3nc3ccccc23)cc1` the T/C (endpoint: mean survival time, dose: 10.0 mg/kg/injection, schedule: Q01DX009 (ip), vehicle: saline) was 104 % of control, the T/C (endpoint: mean survival time, dose: 10.0 mg/kg/injection, schedule: Q01DX009 (sc), vehicle: saline) was 92 % of control and the T/C (endpoint: mean survival time, dose: 20.0 mg/kg/injection, schedule: Q01DX009 (ip), vehicle: saline) was 101 % of control. The T/C (endpoint: mean survival time, dose: 20.0 mg/kg/injection, schedule: Q01DX009 (sc), vehicle: saline) was 96 % of control, the T/C (endpoint: mean survival time, dose: 40.0 mg/kg/injection, schedule: Q01DX009 (ip), vehicle: saline) was 96 % of control and the T/C (endpoint: mean survival time, dose: 40.0 mg/kg/injection, schedule: Q01DX009 (sc), vehicle: saline) was 90 % of control. The T/C (endpoint: mean survival time, dose: 80.0 mg/kg/injection, schedule: Q01DX009 (sc), vehicle: saline) was 96 % of control.

`CN(N=O)C(=O)NCCCCCNC(=O)N(C)N=O` was tested, and the T/C (endpoint: mean survival time, dose: 210.0 mg/kg/injection, schedule: Q01DX001 (ip), vehicle: carboxymethylcellulose (CMC)) was 113 % of control and the T/C (endpoint: mean survival time, dose: 420.0 mg/kg/injection, schedule: Q01DX001 (ip), vehicle: carboxymethylcellulose (CMC)) was 123 % of control.

For `COc1cccc2c1C(=O)c1c(O)c3c(c(O)c1C2=O)C[C@@](O)(C(=O)CO)C[C@@H]3OC1CC(N)C(O)C(C)O1` (some centres not stated), the T/C (endpoint: mean survival time, dose: 0.05 mg/kg/injection, schedule: Q03HX024 (ip), vehicle: saline) was 106 % of control, the T/C (endpoint: mean survival time, dose: 0.1 mg/kg/injection, schedule: Q03HX024 (ip), vehicle: saline) was 103 % of control and the T/C (endpoint: mean survival time, dose: 0.2 mg/kg/injection, schedule: Q03HX024 (ip), vehicle: saline) was 100 % of control. The T/C (endpoint: mean survival time, dose: 0.4 mg/kg/injection, schedule: Q03HX024 (ip), vehicle: saline) was 102 % of control, the T/C (endpoint: mean survival time, dose: 0.5 mg/kg/injection, schedule: Q01DX005 (ip), vehicle: saline) was 104 % of control and the T/C (endpoint: mean survival time, dose: 0.5 mg/kg/injection, schedule: Q01DX009 (ip), vehicle: saline) was 101 % of control. The T/C (endpoint: mean survival time, dose: 0.5 mg/kg/injection, schedule: Q04DX003 (ip), vehicle: saline) was 105 % of control, the T/C (endpoint: mean survival time, dose: 0.8 mg/kg/injection, schedule: Q03HX024 (ip), vehicle: saline) was 101 % of control and the T/C (endpoint: mean survival time, dose: 1.0 mg/kg/injection, schedule: Q01DX005 (ip), vehicle: saline) was 104 % of control. The T/C (endpoint: mean survival time, dose: 1.0 mg/kg/injection, schedule: Q01DX009 (ip), vehicle: saline) was 102 % of control, the T/C (endpoint: mean survival time, dose: 1.0 mg/kg/injection, schedule: Q04DX003 (ip), vehicle: saline) was 102 % of control and the T/C (endpoint: mean survival time, dose: 2.0 mg/kg/injection, schedule: Q01DX005 (ip), vehicle: saline) was 107 % of control. The T/C (endpoint: mean survival time, dose: 2.0 mg/kg/injection, schedule: Q01DX009 (ip), vehicle: saline) was 101 % of control, the T/C (endpoint: mean survival time, dose: 2.0 mg/kg/injection, schedule: Q04DX003 (ip), vehicle: saline) was 101 % of control and the T/C (endpoint: mean survival time, dose: 4.0 mg/kg/injection, schedule: Q01DX005 (ip), vehicle: saline) was 106 % of control. For the same compound, the T/C (endpoint: mean survival time, dose: 4.0 mg/kg/injection, schedule: Q04DX003 (ip), vehicle: saline) was 108 % of control and the T/C (endpoint: mean survival time, dose: 8.0 mg/kg/injection, schedule: Q04DX003 (ip), vehicle: saline) was 100 % of control.

With `CC(CN1CC(=O)NC(=O)C1)N1CC(=O)NC(=O)C1` (configuration not stated) the T/C (endpoint: mean survival time, dose: 1.56 mg/kg/injection, schedule: Q03HX024 (ip), vehicle: steriod suspending solution) was 108 % of control and 118 % of control, the T/C (endpoint: mean survival time, dose: 3.12 mg/kg/injection, schedule: Q03HX024 (ip), vehicle: steriod suspending solution) was 162 % of control and the T/C (endpoint: mean survival time, dose: 12.5 mg/kg/injection, schedule: Q01DX009 (ip), vehicle: steriod suspending solution) was 124 % of control. For the same compound, the T/C (endpoint: mean survival time, dose: 25.0 mg/kg/injection, schedule: Q03HX024 (ip), vehicle: steriod suspending solution) was 180 % of control, the T/C (endpoint: mean survival time, dose: 50.0 mg/kg/injection, schedule: Q04DX003 (ip), vehicle: steriod suspending solution) was 122 % of control and the T/C (endpoint: mean survival time, dose: 100.0 mg/kg/injection, schedule: Q01DX009 (ip), vehicle: steriod suspending solution) was 97 % of control. For the same compound, the T/C (endpoint: mean survival time, dose: 108.0 mg/kg/injection, schedule: Q04DX003 (ip), vehicle: other) was 104 % of control and 122 % of control, the T/C (endpoint: mean survival time, dose: 108.0 mg/kg/injection, schedule: Q04DX003 (ip), vehicle: steriod suspending solution) was 108 % of control and the T/C (endpoint: mean survival time, dose: 180.0 mg/kg/injection, schedule: Q04DX003 (ip), vehicle: other) was 104 % of control and 118 % of control. The T/C (endpoint: mean survival time, dose: 180.0 mg/kg/injection, schedule: Q04DX003 (ip), vehicle: steriod suspending solution) was 108 % of control and 123 % of control, the T/C (endpoint: mean survival time, dose: 200.0 mg/kg/injection, schedule: Q01DX001 (ip), vehicle: steriod suspending solution) was 111 % of control and the T/C (endpoint: mean survival time, dose: 400.0 mg/kg/injection, schedule: Q01DX001 (ip), vehicle: steriod suspending solution) was 110 % of control. The T/C (endpoint: mean survival time, dose: 500.0 mg/kg/injection, schedule: Q04DX003 (ip), vehicle: other) was 107 % of control and 117 % of control, the T/C (endpoint: mean survival time, dose: 500.0 mg/kg/injection, schedule: Q04DX003 (ip), vehicle: steriod suspending solution) was 111 % of control and 122 % of control and the T/C (endpoint: mean survival time, dose: 800.0 mg/kg/injection, schedule: Q04DX003 (ip), vehicle: steriod suspending solution) was 115 % of control and 86 % of control (2×). For the same compound, the T/C (endpoint: mean survival time, dose: 833.0 mg/kg/injection, schedule: Q04DX003 (ip), vehicle: Klucel (hydroxypropylcellulose) (HPC)) was 103 % of control, the T/C (endpoint: median survival time, dose: 16.0 mg/kg/injection, schedule: Q01DX009 (ip), vehicle: Klucel (hydroxypropylcellulose) (HPC)) was 116 % of control and the T/C (endpoint: median survival time, dose: 64.0 mg/kg/injection, schedule: Q01DX009 (ip), vehicle: Klucel (hydroxypropylcellulose) (HPC)) was 114 % of control. For the same compound, the T/C (endpoint: median survival time, dose: 108.0 mg/kg/injection, schedule: Q04DX003 (ip), vehicle: Klucel (hydroxypropylcellulose) (HPC)) was 118 % of control and the T/C (endpoint: median survival time, dose: 128.0 mg/kg/injection, schedule: Q01DX009 (ip), vehicle: Klucel (hydroxypropylcellulose) (HPC)) was 109 % of control and 123 % of control and 95 % of control.

With `O=NN(CCCl)C(=O)NC1CCC(NC(=O)N(CCCl)N=O)CC1` (configuration not stated) the T/C (endpoint: mean survival time, dose: 38.0 mg/kg/injection, schedule: Q01DX001 (oral), vehicle: other) was 119 % of control, the T/C (endpoint: mean survival time, dose: 48.0 mg/kg/injection, schedule: Q01DX001 (ip), vehicle: other) was 151 % of control and 157 % of control and the T/C (endpoint: mean survival time, dose: 84.0 mg/kg/injection, schedule: Q01DX001 (oral), vehicle: other) was 154 % of control. The T/C (endpoint: mean survival time, dose: 96.0 mg/kg/injection, schedule: Q01DX001 (ip), vehicle: other) was 276 % of control and 370 % of control, the T/C (endpoint: mean survival time, dose: 127.0 mg/kg/injection, schedule: Q01DX001 (ip), vehicle: carboxymethylcellulose (CMC)) was 232 % of control and the T/C (endpoint: mean survival time, dose: 171.0 mg/kg/injection, schedule: Q01DX001 (oral), vehicle: other) was 209 % of control. The T/C (endpoint: mean survival time, dose: 191.0 mg/kg/injection, schedule: Q01DX001 (ip), vehicle: other) was 291 % of control and 389 % of control, the T/C (endpoint: mean survival time, dose: 255.0 mg/kg/injection, schedule: Q01DX001 (ip), vehicle: carboxymethylcellulose (CMC)) was 307 % of control and the T/C (endpoint: mean survival time, dose: 319.0 mg/kg/injection, schedule: Q01DX001 (oral), vehicle: other) was 198 % of control and 260 % of control. For the same compound, the T/C (endpoint: mean survival time, dose: 383.0 mg/kg/injection, schedule: Q01DX001 (ip), vehicle: other) was 154 % of control, the T/C (endpoint: mean survival time, dose: 510.0 mg/kg/injection, schedule: Q01DX001 (ip), vehicle: carboxymethylcellulose (CMC)) was 154 % of control and the T/C (endpoint: mean survival time, dose: 638.0 mg/kg/injection, schedule: Q01DX001 (oral), vehicle: other) was 268 % of control and 398 % of control.
